Assay results published in patent US10463630B2, “Interaction of methylated LSD1 and CHD1, a compound inhibiting this interaction for use in therapy, and a screening method for such a compound” (Albert-Ludwigs-Universität Freiburg, priority 2015, dated 2019).
Changes are numbered by the printed parent chain.

What was measured:
LNCaP cells [1] = assay: Chromatin immunoprecipitation (ChIP) at AREs of TMPRSS2 and KLK3 enhancers; format: cell-based, human; settings: for chromatin occupancy of G9A: presence or absence of DHT and Bix-01294
Experimental: ChIP experiments were performed essentially as previously described^10. LNCaP and LAPC4 cells were cultured for 210 min in the absence or presence of 1×10^-7 M DHT as indicated. Three days before harvesting, cells were transfected with siRNA against LSD110, G9A20, or CHD121 that were previously described and validated using Dharmafect2 (Thermo Scientific) following the manufacturer's instructions. Immunoprecipitation was performed with specific antibodies (α-AR (N-20), #sc-816, lot A0207, Santa Cruz), α-LSD1 (#20752, Schuele Laboratory), α-LSD1 K114me2 (#4871, Schuele Laboratory), α-CHD1 (#A301-218A, lot A301-218A-1, Bethyl Laboratories), α-G9A (#ab40542, lot GR170862-1, Abcam) on protein A-Sepharose 4B (GE-Healthcare). For PCR, 2 μl out of 70 μl DNA extract were used. Primer sequences were as follows: TMPRSS2 enhancer (−13782/−13866) 5′-[…]-3′ (SEQ ID NO:1) and 5′-[…]-3′ (SEQ ID NO:2); KLK3 enhancer (−3980/−4048) 5′-[…]-3′ (SEQ ID NO:3) and 5′-[…]-3′ (SEQ ID NO:4); control (chr6:151953789-151953927) 5′-[…]-3′ (SEQ ID NO:5) and 5′-[…]-3′ (SEQ ID NO:6).
LNCaP cells were cultured and transfected as described^10.

LNCaP cells [2] = assay: Expression of androgen-regulated genes (quantitative RT-PCR); format: cell-based, human; settings: 1×10^−5 M Bix-01294, FIG. 3j
LAPC4 cells [3] = assay: as above; format: cell-based; settings: 1×10^−5 M Bix-01294, FIG. 3k
LAPC4 cells [4] = assay: Chromosome conformation capture (3C), TMPRSS2 enhancer-breakpoint loop; format: cell-based; settings: DHT, Bix-01294, FIG. 4b
Experimental: LNCaP cells were grown for 72 hours in medium supplemented with 10% double-stripped FCS, treated for 210 min with or without DHT 10^−7 M, washed in PBS, and trypsinized 2 min at 37° C. After washing, cells were resuspended in PBS, filtered through a 40 μm cell strainer and collected in an ice cold 2% formaldehyde solution. After 15 min incubation at 4° C., fixation was stopped by adding glycine and cells were pelleted. After washing, cells were resuspended in nuclear isolation buffer (10 mM HEPES-KOH pH 7.9, 1.5 mM MgCl2, 10 mM KCl, 0.5 mM DTT, Complete protease inhibitor cocktail, Roche), allowed to swell on ice for 10 min, vortexed for 10 seconds at low speed, and pelleted. Isolated nuclei were resuspended in NEB restriction buffer, SDS was added to a final concentration of 0.5%, and nuclei were incubated for 1 h at 37° C. while shaking. Upon addition of Triton X-100, samples were incubated for 1 h at 37° C. to sequester SDS. 50 μl of the sample were taken and used as an undigested control. 600 U restriction enzyme were added and samples were incubated overnight at 37° C. while shaking. 40 μl 20% SDS solution was added and incubated for 20 min at 65° C. to inactivate the restriction enzyme. […] Purified DNA samples were analyzed on a Roche LightCycler®480 by TaqMan-based qPCR. […] To verify Enhancer-Breakpoint PCR product, samples were analyzed on a 2% agarose gel and sequenced. […]

LNCaP cells [5] = test system: LNCaP cells
Experimental: LNCaP cells were grown for 72 hours in medium supplemented with 10% double-stripped FCS, treated for 210 min with or without DHT 10^−7 M, washed in PBS, and trypsinized 2 min at 37° C. After washing, cells were resuspended in PBS, filtered through a 40 μm cell strainer and collected in an ice cold 2% formaldehyde solution. After 15 min incubation at 4° C., fixation was stopped by adding glycine and cells were pelleted. After washing, cells were resuspended in nuclear isolation buffer (10 mM HEPES-KOH pH 7.9, 1.5 mM MgCl2, 10 mM KCl, 0.5 mM DTT, Complete protease inhibitor cocktail, Roche), allowed to swell on ice for 10 min, vortexed for 10 seconds at low speed, and pelleted. Isolated nuclei were resuspended in NEB restriction buffer, SDS was added to a final concentration of 0.5%, and nuclei were incubated for 1 h at 37° C. while shaking. Upon addition of Triton X-100, samples were incubated for 1 h at 37° C. to sequester SDS. 50 μl of the sample were taken and used as an undigested control. 600 U restriction enzyme were added and samples were incubated overnight at 37° C. while shaking. 40 μl 20% SDS solution was added and incubated for 20 min at 65° C. to inactivate the restriction enzyme. […] Purified DNA samples were analyzed on a Roche LightCycler®480 by TaqMan-based qPCR. […] To verify Enhancer-Breakpoint PCR product, samples were analyzed on a 2% agarose gel and sequenced.

LNCaP cells [6] = settings: DHT 10^−6 M, 3 days, FIG. 4f
Experimental: Expression analysis of TMPRSS2-ERG (FIG. 4f) was done essentially as previously described. […] HPRT was used for normalization.
(§1) LNCaP cells were cultured and transfected as described^10. […] For FISH and analysis of TMPRSS2-ERG expression (FIG. 4f,g) cells were transfected with siRNAs height and five days before harvesting; DHT 10^−6 M was added to the cells as indicated 3 days before harvesting. […] Cells were cultivated for 3 days (FIG. 4f, g) with DHT 10^−6 M as indicated.

LNCaP cells [7] = settings: DHT 10^−6 M, 3 days, FIG. 4g
Experimental: as §1
To determine TMPRSS2-ERG fusion status in LNCaP cells, a FISH break-apart assay was performed as described previously^41. The FISH probe consists of two BAC clones spanning the centromeric and telomeric region of the ERG locus on chromosome 21q22.2: RP11-24A11 labelled with biotin-14-dCTP (red) and RP11-137J13 labelled with digoxigenin-dUTP (green). After harvesting, LNCaP cells were incubated with 0.075 M KCl at 37° C. for 15 min and fixed on slides (acetic acid/methanol 1:3). Slides were pre-treated with 2×SSC at 37° C. for 60 min, digested with 1:25 Digest-A11 III at 37° C. for 6 min and dehydrated in an ascending ethanol series. The probes were denatured at 73° C. for 5 min and subsequently co-denaturized with the cells (85° C., 4 min). Hybridization of the two probes was performed at 37° C. overnight. […] Finally slides were counterstained with DAPI and mounted and independently evaluated by two persons.

CHD1 D425A = biological target: T1, CHD1 D425A (Homo sapiens, UniProt O14646, D425A); assay: ITC with CHD1 D425A mutant; format: binding; settings: data not shown
T1 construct: titration of LSD1aa104-127 K114me0, 1, 2, and 3 peptides to CHD1aa270-443; made in house; E. coli likely, inferred from the pET15b vector of the wild-type fragment
T1 sequence (O14646 270-443 D425A): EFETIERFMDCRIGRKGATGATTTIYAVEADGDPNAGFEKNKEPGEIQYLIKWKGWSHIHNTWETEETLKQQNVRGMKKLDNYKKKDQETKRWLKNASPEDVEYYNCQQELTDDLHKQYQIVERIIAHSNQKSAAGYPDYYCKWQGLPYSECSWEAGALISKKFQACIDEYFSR
Excerpt: Amino acid residues 110-116 of the LSD1 peptide were modelled according to the electron density (FIG. 2c). […] This interaction involves residues Y295, W322, W325 from chromodomain 1 and D408 and D425 from chromodomain 2 (FIG. 2b and FIG. 5a). The methylammonium group of LSD1 K114 and side chains of W322 and W325 of CHD1 form cation-π interactions. […] It was therefore hypothesized that the R113-D425 interaction may be a discriminating feature of CHD1 binding either LSD1 K114me2 or H3K4me3 peptide and that the corresponding surface could be exploited for the design of inhibitors specifically interfering with LSD1 K114me2 but not H3K4me3 interaction (see FIG. 5c). […] Next, it was tested whether in vivo the interaction of CHD1 with LSD1 depends on LSD1 methylation. In the presence of G9A, endogenous CHD1 only coimmunoprecipitated with methylated Flag-LSD1, but not with Flag-LSD1 K114A (FIG. 2d). To investigate whether CHD1 and LSD1 K114me2 are present in the same protein complex, LNCaP cell extracts were subjected to sucrose gradient centrifugation. […] Furthermore, endogenously expressed CHD1 and LSD1 K114me2 coimmunoprecipitated with G9A from LNCaP cell extracts (FIG. 2f). Together, these observations identify CHD1 as a LSD1 K114me2 reader.
ITC experiments were performed at 25° C. with a MicroCal VP-ITC microcalorimeter (GE Healthcare). […]

CHD1aa270-443 = biological target: T2, CHD1aa270-443 (Homo sapiens, UniProt O14646); assay: Isothermal titration calorimetry (ITC) of peptides titrated to CHD1; format: binding; settings: FIG. 2a
T2 construct: titration of LSD1aa104-127 K114me0, 1, 2, and 3 peptides to CHD1aa270-443; made in house; E. coli likely, inferred from the pET15b vector
T2 sequence (O14646 270-443): T1 sequence (O14646 270-443 D425A) with A156D
Experimental: ITC experiments were performed at 25° C. with a MicroCal VP-ITC microcalorimeter (GE Healthcare). Experiments were performed by injecting 12 μl of peptide (1.5 mM) into the sample cell containing 100 μM CHD1 in 20 mM BTP pH 8, 75 mM NaCl. A total of 24 injections were performed with a spacing of 240 s and a reference power of […]. Automated baseline assignment and peak integration were performed with NITPIC version 1.0.1.^26. Isotherms were plotted, with a single-site binding model, using SEDPHAT version 10.58d^26. Isotherms were subsequently validated by one dimensional error surface projections in SEDFIT^27.

[8] = biological target: T3, CHD1 double chromodomain (GST-CHD1 Chromo 1/2) (Homo sapiens, UniProt O14646); assay: Protein profiling on protein-domain microarrays with LSD1 peptides; format: binding; settings: GST-fusion proteins
T3 sequence (O14646 268-443 limits assumed): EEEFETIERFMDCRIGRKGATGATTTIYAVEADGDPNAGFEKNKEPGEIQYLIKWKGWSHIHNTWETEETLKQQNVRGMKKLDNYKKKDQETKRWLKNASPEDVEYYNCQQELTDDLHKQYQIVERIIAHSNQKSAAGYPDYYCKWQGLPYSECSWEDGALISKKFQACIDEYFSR
Experimental: To identify potential LSD1 K114me2 methyl-lysine reader proteins, protein profiling was performed on protein-domain microarrays using un- and dimethylated LSD1 peptides LSD1aa104-127 and LSD1aa104-127 K114me2, respectively (see also ref.^14). In this profiling assay, several GST-fusion proteins including CHD1 fused to GST were used. Other GST-fusions that were used were e.g. PhD-domain proteins (BPTF, ING2 or PHF2), BROMO-domain proteins (GCN5, TAF1-D1 or TAF1-D2), or BRCT-proteins (BRCA1, 53BP1 or Crb2).

Compound: COc1cc2nc(N3CCCN(C)CC3)nc(NC3CCN(Cc4ccccc4)CC3)c2cc1OC [Bix-01294]
- chromatin occupancy of G9A (LNCaP cells [1]; ChIP): not altered
- androgen-induced methylation of LSD1 and androgen-induced recruitment of CHD1 and AR (LNCaP cells [1]; DHT, 1×10^−5 M Bix-01294, ChIP, FIG. 3g): blocked
- DHT-induced expression of TMPRSS2, KLK3, PRDM4, ELK4, GREB1, IGF1R, FKBP5, or EGFR (LNCaP cells [2]): greatly reduced
- DHT-induced expression of TMPRSS2, KLK3, PRDM4, ELK4, GREB1, IGF1R, FKBP5, or EGFR (LAPC4 cells [3]): greatly reduced
- androgen-dependent TMPRSS2 enhancer-breakpoint loop formation (LAPC4 cells [4]): blocked this loop formation
- androgen-dependent TMPRSS2 enhancer-breakpoint loop formation (LNCaP cells [5]; DHT, Bix-01294, FIG. 4a): blocked this loop formation

Compound: C[C@]12CCC(=O)C[C@@H]1CC[C@@H]1[C@@H]2CC[C@]2(C)[C@@H](O)CC[C@@H]12 [DHT, dihydrotestosterone]
- chromatin occupancy of G9A (LNCaP cells [1]; ChIP): not altered
- LSD1 K114me2 levels and CHD1 and AR occupancy of the TMPRSS2 and KLK3 genes (LNCaP cells [1]; DHT 10^−7 M, 210 min, ChIP): elevated LSD1 K114me2 levels accompanied by increased CHD1 and AR occupancy
- TMPRSS2 enhancer-breakpoint interactions (LNCaP cells [5]; DHT 10^−7 M, 210 min, 3C): enhancer-breakpoint interactions upon treatment with DHT was observed
- TMPRSS2-ERG transcript (LNCaP cells [6]): led to the production of TMPRSS2-ERG transcript
- ERG rearrangements by FISH (LNCaP cells [7]): induced ERG rearrangements

Compound: H3K4me3 peptide: histone 3 peptide modified at lysine residue 4 by three methyl-groups
- effect of D425A mutation in CHD1 on peptide binding (CHD1 D425A): only mildly affected

Compound: Unmethylated H3 peptide: unmethylated histone H3 peptide
- binding to GST-CHD1 Chromo 1/2 (CHD1aa270-443): did not bind

Compound: Unmethylated LSD1: unmethylated LSD1 peptide LSD1aa104-127 (TPEGRRTSRRKRAKVEYREMDESL)
- binding to GST-CHD1 Chromo 1/2 (CHD1aa270-443): did not bind
- interaction with CHD1 double chromodomain on microarray [8]: not
